Results: paper PMC11329504, “Identification of novel small molecule-based strategies of COL7A1 upregulation and readthrough activity for the treatment of recessive dystrophic epidermolysis bullosa” (Scientific Reports, 2024)
Each block holds one compound with its values, some of them ahead of it.

Key:
[1] = system: MDH1 native stop codon readthrough in RDEB_L1 and RDEB_L5 cells; assay: Western blot of MDH1 native stop codon (NSC) readthrough selectivity; format: cell-based, human; settings: 48 h
Source text: In the absence of a verified target or mechanism of action, a key aspect of phenotypic screening is to ensure that the phenotypic activity is sufficiently selective and has minimal or no interference in physiologically close cellular processes. In this context, the selectivity of readthrough compounds vs native stop codons (NSC) and normal codon–anticodon recognition is an important endpoint to verify the selectivity of hit compounds. For that purpose, we analyzed the translation products of MDH-1, a gene that has an alternative native stop codon that has been used as a surrogate of non-specific readthrough activity[42],[43]. […] For western blot, RDEB or normal human keratinocytes were lysed in protein extraction buffer (50 mM Tris–HCl [pH 7.5], 100 mM NaCl, 1% Nonidet P-40, and 4 mM EDTA) containing proteinase inhibitors cocktail (Complete Mini, EDTA free; Roche Diagnostics, Mannheim, Germany). Lysates were incubated for 30 min on ice and centrifuged at 15,000 g for 30 min at 4 °C. Supernatants were then collected and concentrated by ultrafiltration using Amicon Ultra columns (10 kDa; Millipore, Ireland). Protein concentrations were measured using the Bradford assay (Bio-Rad, Hercules, CA). […] A. Nystrom, University of Freiburg). Invitrogen anti-MDH1 polyclonal antibody (PA550446, 1:1000) was used to detect MDH1. […]

[2] = Cytotoxicity, ATP levels (ATPlite), RDEB_L1 cells; format: cell-based; settings: human, RDEB L1 cells (RDEB patient-derived cell line)
Procedure: (§1) The viability of RDEB patient-derived cell lines or NHK was evaluated by measuring the ATP levels as an indirect readout of the potential cytotoxicity effect of compounds. Cells were plated and treated exactly with the same conditions as those followed in the AlphaLISA assay, described above. To measure ATP levels, cells were processed using the ATPlite™ 1step luminescence-based assay (PerkinElmer 6,016,731), following the manufacturer’s protocol. 25 μL of ATPlite™ reagent was added directly over cells and plates were covered with a sealing film and shaken for 25 min using a microtiter plate shaker. Luminescence was measured in a Luminoskan Ascent luminometer (Thermo Fisher Scientific). 10 μM of Staurosporine was used as a reference compound and control for the total cytotoxicity.

[3] = system: NHK cells; assay: Cytotoxicity, ATP levels, normal human keratinocytes (NHK); format: cell-based; settings: NHK cells, ATP levels, at 100 µM
Procedure: as §1

[4] = target: T1, Dopamine transporter (Homo sapiens, UniProt Q01959); assay: Selectivity panel (Eurofins): dopamine transporter; format: binding; settings: n = 1, duplicate
T1 construct: Eurofins Pharma Discovery Services
Procedure: (§2) Selectivity was evaluated at Eurofins Pharma Discovery Services at 3 µM, 10 µM, and 30 µM in duplicate using a selection of 84 representative kinases and 44 GPCRs, transporters, nuclear receptors (NR), enzymes, and ion channels.

[5] = target: T2, PDE4D2 (Homo sapiens, UniProt Q08499); assay: Selectivity panel (Eurofins): PDE4D2; format: biochemical; settings: n = 1, duplicate
T2 construct: Eurofins Pharma Discovery Services
Procedure: as §2

[6] = target: Tyk2 (Homo sapiens, UniProt P29597); assay: Enzymatic Tyk2 kinase activity; format: biochemical; settings: dose-response curves; read-out: IC50 ± SD, Tyk2
Procedure: (§3) Enzymatic Syk kinase activity assays were performed as previously described. Enzymatic activity of JAK1, JAK2, JAK3, and Tyk kinases was evaluated as previously described.

[7] = target: T3, JAK3 (Homo sapiens, UniProt P52333); assay: Enzymatic JAK3 kinase activity; format: biochemical; settings: dose-response curves; read-out: IC50 ± SD, JAK3
T3 sequence (P52333 1-1124): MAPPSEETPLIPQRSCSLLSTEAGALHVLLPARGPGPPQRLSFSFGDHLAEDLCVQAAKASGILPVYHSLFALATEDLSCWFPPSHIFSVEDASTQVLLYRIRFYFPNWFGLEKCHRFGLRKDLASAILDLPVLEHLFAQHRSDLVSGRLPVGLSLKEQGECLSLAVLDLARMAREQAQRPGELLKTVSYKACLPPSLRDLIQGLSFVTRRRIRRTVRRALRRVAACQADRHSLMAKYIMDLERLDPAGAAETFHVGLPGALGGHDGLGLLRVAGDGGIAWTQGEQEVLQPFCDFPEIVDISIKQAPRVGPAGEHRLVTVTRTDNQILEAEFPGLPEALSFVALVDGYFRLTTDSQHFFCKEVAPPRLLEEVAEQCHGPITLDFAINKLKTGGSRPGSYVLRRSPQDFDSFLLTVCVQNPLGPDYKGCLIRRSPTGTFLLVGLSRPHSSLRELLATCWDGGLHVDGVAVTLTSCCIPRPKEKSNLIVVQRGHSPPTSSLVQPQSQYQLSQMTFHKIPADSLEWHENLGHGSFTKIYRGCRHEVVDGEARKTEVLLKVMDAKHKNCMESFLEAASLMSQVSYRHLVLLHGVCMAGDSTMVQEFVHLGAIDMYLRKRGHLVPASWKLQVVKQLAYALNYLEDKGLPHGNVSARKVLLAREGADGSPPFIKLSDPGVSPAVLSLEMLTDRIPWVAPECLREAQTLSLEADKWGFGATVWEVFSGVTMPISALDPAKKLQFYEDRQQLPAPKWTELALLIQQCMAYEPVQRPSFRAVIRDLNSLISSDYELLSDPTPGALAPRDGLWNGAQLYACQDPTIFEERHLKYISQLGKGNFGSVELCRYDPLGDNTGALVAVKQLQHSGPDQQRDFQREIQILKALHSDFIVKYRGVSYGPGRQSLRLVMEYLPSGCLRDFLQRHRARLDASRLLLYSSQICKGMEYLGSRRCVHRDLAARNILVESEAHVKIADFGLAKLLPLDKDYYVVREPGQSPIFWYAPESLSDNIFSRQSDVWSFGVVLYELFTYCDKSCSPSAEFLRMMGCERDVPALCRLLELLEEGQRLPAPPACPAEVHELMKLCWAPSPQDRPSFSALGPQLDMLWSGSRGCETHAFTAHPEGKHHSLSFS
Procedure: as §3

[8] = target: JAK2 (Homo sapiens, UniProt O60674); assay: Enzymatic JAK2 kinase activity; format: biochemical; settings: dose-response curves; read-out: IC50 ± SD, JAK2
Procedure: as §3

[9] = target: JAK1 (Homo sapiens, UniProt P23458); assay: Enzymatic JAK1 kinase activity; format: biochemical; settings: dose-response curves; read-out: IC50 ± SD, JAK1
Procedure: as §3

[10] = target: Syk (Homo sapiens, UniProt P43405); assay: Enzymatic Syk kinase activity; format: biochemical; settings: dose-response curves; read-out: IC50 ± SD, Syk
Procedure: as §3

T2 sequence (Q08499 303-809 limits assumed): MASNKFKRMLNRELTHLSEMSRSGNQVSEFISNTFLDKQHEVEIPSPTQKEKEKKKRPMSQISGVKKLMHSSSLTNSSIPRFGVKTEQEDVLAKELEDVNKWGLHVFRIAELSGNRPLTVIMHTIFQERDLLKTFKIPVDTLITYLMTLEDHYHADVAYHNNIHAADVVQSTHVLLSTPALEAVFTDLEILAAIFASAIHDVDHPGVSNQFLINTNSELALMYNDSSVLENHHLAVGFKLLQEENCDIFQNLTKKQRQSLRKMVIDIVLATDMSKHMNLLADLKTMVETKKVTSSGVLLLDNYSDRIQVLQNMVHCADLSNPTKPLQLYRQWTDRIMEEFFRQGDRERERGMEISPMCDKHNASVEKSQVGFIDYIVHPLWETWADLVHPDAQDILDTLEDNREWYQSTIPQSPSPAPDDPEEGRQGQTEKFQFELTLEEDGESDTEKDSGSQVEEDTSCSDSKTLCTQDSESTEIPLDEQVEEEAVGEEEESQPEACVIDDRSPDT
T1 sequence (Q01959 whole entry): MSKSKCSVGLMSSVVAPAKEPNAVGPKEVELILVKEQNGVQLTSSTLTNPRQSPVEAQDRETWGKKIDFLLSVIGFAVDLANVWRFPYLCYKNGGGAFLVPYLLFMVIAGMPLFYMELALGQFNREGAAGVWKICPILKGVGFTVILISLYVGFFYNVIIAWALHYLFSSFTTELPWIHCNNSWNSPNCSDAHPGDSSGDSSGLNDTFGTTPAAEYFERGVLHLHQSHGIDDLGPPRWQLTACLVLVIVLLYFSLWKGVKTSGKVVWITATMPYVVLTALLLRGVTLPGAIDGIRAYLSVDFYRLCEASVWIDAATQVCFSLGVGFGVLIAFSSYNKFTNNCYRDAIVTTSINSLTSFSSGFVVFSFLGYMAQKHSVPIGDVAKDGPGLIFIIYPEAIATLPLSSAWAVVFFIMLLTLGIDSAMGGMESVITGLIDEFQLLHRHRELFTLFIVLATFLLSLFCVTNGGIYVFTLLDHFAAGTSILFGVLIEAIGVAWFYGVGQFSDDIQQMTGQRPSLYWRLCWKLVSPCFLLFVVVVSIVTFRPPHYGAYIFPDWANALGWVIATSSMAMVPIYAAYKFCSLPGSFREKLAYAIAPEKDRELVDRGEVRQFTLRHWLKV
Chain of Tyk2 (P29597 whole entry, species assumed): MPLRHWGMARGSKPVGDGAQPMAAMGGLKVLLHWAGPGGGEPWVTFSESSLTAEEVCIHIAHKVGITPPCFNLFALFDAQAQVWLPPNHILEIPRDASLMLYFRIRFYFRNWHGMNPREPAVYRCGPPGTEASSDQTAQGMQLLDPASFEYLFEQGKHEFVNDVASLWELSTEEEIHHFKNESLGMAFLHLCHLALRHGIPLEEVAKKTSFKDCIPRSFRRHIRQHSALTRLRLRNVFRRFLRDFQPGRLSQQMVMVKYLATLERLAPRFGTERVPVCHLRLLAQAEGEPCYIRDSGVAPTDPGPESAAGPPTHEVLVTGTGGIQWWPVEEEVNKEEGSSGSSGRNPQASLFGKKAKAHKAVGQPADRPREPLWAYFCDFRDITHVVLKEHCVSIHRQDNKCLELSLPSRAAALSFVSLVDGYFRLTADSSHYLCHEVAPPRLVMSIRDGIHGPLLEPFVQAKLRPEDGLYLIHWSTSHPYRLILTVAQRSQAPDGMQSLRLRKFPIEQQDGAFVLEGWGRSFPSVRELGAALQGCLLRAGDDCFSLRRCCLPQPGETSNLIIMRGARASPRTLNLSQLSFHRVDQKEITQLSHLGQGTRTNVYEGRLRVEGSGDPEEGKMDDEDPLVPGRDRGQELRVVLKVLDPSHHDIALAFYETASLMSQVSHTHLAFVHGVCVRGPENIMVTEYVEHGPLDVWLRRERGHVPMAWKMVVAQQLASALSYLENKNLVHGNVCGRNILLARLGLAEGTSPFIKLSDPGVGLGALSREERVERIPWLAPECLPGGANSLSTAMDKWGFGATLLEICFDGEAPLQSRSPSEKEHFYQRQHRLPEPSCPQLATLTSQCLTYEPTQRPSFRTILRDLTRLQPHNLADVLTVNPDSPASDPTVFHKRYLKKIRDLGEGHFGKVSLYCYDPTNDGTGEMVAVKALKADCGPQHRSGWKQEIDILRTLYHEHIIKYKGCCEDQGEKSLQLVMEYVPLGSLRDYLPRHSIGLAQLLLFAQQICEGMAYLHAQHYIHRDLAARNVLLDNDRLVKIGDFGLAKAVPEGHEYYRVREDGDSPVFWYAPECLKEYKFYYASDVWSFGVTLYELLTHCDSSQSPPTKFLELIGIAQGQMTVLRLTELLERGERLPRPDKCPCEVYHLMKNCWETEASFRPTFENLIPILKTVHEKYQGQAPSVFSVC
Chain of JAK1 (P23458 whole entry, species assumed): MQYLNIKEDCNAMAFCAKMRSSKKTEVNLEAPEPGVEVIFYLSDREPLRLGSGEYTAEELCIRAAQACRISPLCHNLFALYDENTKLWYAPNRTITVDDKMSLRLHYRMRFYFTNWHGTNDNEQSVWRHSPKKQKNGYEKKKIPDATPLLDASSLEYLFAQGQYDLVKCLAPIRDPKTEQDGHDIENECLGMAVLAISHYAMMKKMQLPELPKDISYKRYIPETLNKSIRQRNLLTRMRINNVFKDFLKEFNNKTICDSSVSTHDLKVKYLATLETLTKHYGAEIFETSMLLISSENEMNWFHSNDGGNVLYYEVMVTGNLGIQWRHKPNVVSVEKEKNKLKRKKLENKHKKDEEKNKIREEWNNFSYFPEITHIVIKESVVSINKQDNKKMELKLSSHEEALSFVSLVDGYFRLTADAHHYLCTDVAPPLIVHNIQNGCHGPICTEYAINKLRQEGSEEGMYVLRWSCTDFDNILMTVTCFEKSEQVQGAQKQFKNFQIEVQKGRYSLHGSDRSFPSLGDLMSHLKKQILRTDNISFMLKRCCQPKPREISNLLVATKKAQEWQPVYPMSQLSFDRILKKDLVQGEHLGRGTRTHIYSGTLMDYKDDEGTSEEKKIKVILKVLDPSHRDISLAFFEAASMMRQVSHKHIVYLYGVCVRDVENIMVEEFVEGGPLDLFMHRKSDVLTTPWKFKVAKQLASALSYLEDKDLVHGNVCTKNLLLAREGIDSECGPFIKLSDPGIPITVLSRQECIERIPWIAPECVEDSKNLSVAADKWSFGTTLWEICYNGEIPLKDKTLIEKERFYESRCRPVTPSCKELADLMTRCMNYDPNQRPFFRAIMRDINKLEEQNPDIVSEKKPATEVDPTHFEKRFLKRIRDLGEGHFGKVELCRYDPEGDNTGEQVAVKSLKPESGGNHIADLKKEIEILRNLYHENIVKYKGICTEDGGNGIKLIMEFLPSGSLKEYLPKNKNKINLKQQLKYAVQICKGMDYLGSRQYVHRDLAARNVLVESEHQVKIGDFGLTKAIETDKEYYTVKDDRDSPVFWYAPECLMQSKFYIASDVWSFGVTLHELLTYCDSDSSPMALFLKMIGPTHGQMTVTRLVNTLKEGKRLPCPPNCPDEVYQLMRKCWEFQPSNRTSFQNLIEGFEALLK
Chain of JAK2 (O60674 whole entry, species assumed): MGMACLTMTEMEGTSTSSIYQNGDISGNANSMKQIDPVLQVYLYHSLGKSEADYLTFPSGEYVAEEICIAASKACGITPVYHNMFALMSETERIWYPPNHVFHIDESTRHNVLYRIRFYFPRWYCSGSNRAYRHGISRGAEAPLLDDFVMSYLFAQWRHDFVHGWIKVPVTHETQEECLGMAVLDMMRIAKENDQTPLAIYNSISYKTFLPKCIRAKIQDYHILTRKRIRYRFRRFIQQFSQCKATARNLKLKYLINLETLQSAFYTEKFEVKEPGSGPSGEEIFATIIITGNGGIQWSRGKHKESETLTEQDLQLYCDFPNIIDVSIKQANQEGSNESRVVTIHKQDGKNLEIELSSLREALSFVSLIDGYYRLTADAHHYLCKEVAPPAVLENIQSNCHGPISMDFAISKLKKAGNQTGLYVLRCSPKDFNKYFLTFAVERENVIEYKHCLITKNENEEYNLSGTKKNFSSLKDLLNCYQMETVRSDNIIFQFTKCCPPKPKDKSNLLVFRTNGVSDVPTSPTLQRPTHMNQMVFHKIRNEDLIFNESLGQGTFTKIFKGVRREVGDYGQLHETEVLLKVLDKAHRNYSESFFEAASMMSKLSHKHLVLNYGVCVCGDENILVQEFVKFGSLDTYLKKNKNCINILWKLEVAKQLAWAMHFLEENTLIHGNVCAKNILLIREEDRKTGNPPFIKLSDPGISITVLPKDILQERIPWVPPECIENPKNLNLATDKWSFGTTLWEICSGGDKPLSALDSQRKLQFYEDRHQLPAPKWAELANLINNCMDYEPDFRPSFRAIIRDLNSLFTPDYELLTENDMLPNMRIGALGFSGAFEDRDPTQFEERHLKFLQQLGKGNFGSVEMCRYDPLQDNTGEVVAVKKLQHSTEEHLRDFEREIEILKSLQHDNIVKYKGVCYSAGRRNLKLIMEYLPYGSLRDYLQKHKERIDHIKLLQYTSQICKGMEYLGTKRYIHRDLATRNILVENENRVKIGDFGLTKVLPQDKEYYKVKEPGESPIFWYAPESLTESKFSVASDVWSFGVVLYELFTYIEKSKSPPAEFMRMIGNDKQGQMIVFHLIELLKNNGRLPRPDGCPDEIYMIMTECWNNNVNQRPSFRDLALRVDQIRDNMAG

Structure (SMILES): CNC(C)C1CCC(N)C(OC2C(N)CC(N)C(OC3OCC(C)(O)C(NC)C3O)C2O)O1 (stereo not drawn) [Gentamicin, reference compound]
non-specific readthrough at MDH-1 native stop codon, western blot ([1]; twofold above its EC50 in RDEB_L1): inducing detectable non-specific readthrough

Structure (SMILES): C#Cc1cc(-c2ccncc2)c(-c2cccc(F)c2)nc1N [Compound 7]
IC50 [2]: > 100000 nM
Cytotox. % inhibition of viability [3]: 19% ± 11 at 100 (n=4)
inhibition at 3 µM ([4]; at 3 μM): 17%
inhibition at 10 µM ([4]; at 10 μM): 40%
inhibition at 30 µM ([4]; at 30 μM): 64%
inhibition at 3 µM ([5]; at 3 μM): 16%
inhibition at 10 µM ([5]; at 10 μM): 34%
inhibition at 30 µM ([5]; at 30 μM): 61%
non-specific readthrough at MDH-1 native stop codon, western blot ([1]; two and threefold above its EC50 in RDEB_L5 and RDEB_L1 cells respectively): did not induce non-specific readthrough above background levels

IC50 [6]: 30 ± 0.6 nM
IC50 [7]: 60 ± 6 nM
IC50 [8]: 120 ± 60 nM
IC50 [9]: 440 ± 160 nM
IC50 [10]: 1720 ± 440 nM
Structure (SMILES): NC(=O)Cn1ccc2ccc(-c3cnc(N)c(C(=O)NC4C5CC6CC4CC(O)(C6)C5)n3)cc21 (stereo not drawn) [Compound 1]
